Results published in patent US20030022932A1, “Methods for regulating bacteria” (priority 2001, published 2003).

Tested on: Pseudomonas aeruginosa
Assay: agar bead model of rat chronic respiratory infection (quantitative lung pathology, histopathology)
Type: in vivo
Conditions: 7 days post-infection
Protocol: The following Examples illustrate the effect of normal flora and the presence of autoinducer-2 (AI-2) on Pseudomonas aeruginosa infection in the agar bead model of rat chronic respiratory infection. Groups of 15 rats (male Sprague-Dawley 180-200 grams) were inoculated intratracheally with 0.05 mL suspensions of bacteria embedded in agar beads. Seven days post-infection each group was treated as follows: (1) five rats—lungs removed for quantitative microbiology; (2) five rats—bronchoaveolar lavage (BAL) were obtained and analyzed for total cell counts, neutrophils, neutrophil elastase and AI-2 activity; and (3) five rats—lungs removed for histology (quantitative pathology). In the microphotographs shown in FIGS. 4-7, the dark areas indicate regions of consolidation, an indication of tissue damage. An α-hemolytic Streptococcus isolate (designated CFX5) from a cystic fibrosis patient was used to supply naturally synthesized AI-2 in vivo.
Rats inoculated with agar beads containing Pseudomonas aeruginosa alone yielded the quantitative pathology shown in FIG. 3 (PAO), and the histopathology shown in the microphotograph of FIG. 4
Rats inoculated with agar beads containing Pseudomonas aeruginosa alone and exposed to synthetic AI-2 yielded the quantitative pathology shown in FIG. 3 (PAO/AI-2), and the histopathology shown in FIG. 5.
Rats inoculated with agar beads containing Pseudomonas aeruginosa +α-hemolytic Streptococcus (CFX5) yielded the quantitative pathology shown in FIG. 3 (PAO/NF), and the histopathology shown in FIG. 6.
Rats inoculated with agar beads containing Pseudomonas aeruginosa +α-hemolytic Streptococcus (CFX5), treated daily for six days with aerosolized QXO18 (2-pentyl-2-cyclopenten-1-one), an AI-2 antagonist, yielded the quantitative pathology shown in FIG. 3 (PAO/NF/QXO18), and the histopathology shown in FIG. 7.

Compound | lung pathology caused by Pseudomonas aeruginosa (percent of lung tissue showing consolidation) (Pseudomonas aeruginosa + α-hemolytic Streptococcus (CFX5), treated daily for six days with aerosolized compound, PAO/NF/QXO18 vs PAO/NF) | lung pathology caused by Pseudomonas aeruginosa (percent of lung tissue showing consolidation) (AI-2 supplied endogenously by co-infecting α-hemolytic Streptococcus isolate CFX5, PAO/NF) | lung pathology caused by Pseudomonas aeruginosa (percent of lung tissue showing consolidation) (rats inoculated with Pseudomonas aeruginosa alone, exposed to synthetic (exogenously supplied) AI-2, PAO/AI-2 vs PAO)
CCCCCC1=CCCC1=O [2-pentyl-2-cyclopenten-1-one] | greatly diminishes the increased lung pathology | – | –
autoinducer-2 [AI-2] | – | increases the lung pathology even more | increases the lung pathology
